Measurements published in patent publication US20090149472A1, “SALTS OF SUBSTITUTTED PYRAZOLINE COMPOUNDS, THEIR PREPARATION AND USE AND MEDICAMENTS” (Laboratorios Del Dr. Esteve, S.A., priority 2005, published 2009).
Where two headings read alike, the source gives them in different places. Values belong to the molecule of their own block, whether it stands above or below them.

Columns and labels:
CB1-Receptor = CB1-Receptor (Homo sapiens, UniProt P21554); assay: CB1 receptor binding, radioligand [3H]-SR141716A (Table Ia)
rats = assay: In-vivo testing for antiobesic activity; set-up: species or system rat
Protocol: The in-vivo testing for antiobesic activity of the inventive pyrazoline compounds is carried out as described in the publication of G. Colombo et al., “Appetite Suppression and Weight Loss after the Cannabinoid Antagonist SR 141716”; Life Sciences, 63 (8), 113-117, (1998). The respective part of the description is hereby incorporated by reference and forms part of the present disclosure.
The in-vivo testing for antiobesic activity was carried out as described above, whereby four different groups of 10 rats each were treated as follows:
The second group of rats was treated with the inventive compound N-piperidinyl-5-(4-chlorophenyl)-1-(2,4-dichlorophenyl)-4,5-dihydropyrazole-3-carboxamide according to Example 1. Said compound was administered intraperitoneally to the rats over a period of 14 days in a daily dosis of (10 mg/kg body weight).

[1] = biological target: T1, transfected human CB2 receptor (Homo sapiens, UniProt P34972); assay: In-vitro affinity to CB2 receptor, radioligand [3H]-CP55940; format: binding
T1 construct: purchased Receptor Biology, Inc
Protocol: (§1) The in-vitro determination of the affinity of the inventive substituted pyrazoline compounds to CB1/CB2-Rezeptors is carried out as described in the publication of Ruth A. Ross, Heather C. Brockie et al., “Agonist-inverse agonist characterization at CB1 and CB2 cannabinoid receptors of L-759633, L759656 and AM630”, British Journal of Pharmacology, 126, 665-672, (1999), whereby the transfected human CB1 and CB2 receptors of Receptor Biology, Inc. are used. The radioligand used for both receptors is [^3H]-CP55940. The respective parts of the description is hereby incorporated by reference and forms part of the present disclosure.
(§2) The affinity of the inventive substituted pyrazoline compounds to CB1/CB2 receptors was determined as described above.

male NMRI mice [2] = assay: Mouse tetrad model, antagonistic effect against Win 55212-2; format: in vivo; set-up: unit not given here; conditions: 5 mg/kg i.v. prior to Win 55212-2 1.25 mg/kg i.v.
Excerpt: (§3) Substances with affinity for cannabinoid receptors are known to produce a wide range of pharmacological effects. It is also known that intravenous administration of a substance with affinity for cannabinoid receptors in mice produces analgesia, hypothermia, sedation and catalepsy. Individually, none of these effects can be considered as proof that a tested substance has affinity for cannabinoid-receptors, since all of these effects are common for various classes of centrally active agents. However, substances, which show all of these effects, i.e. substances that are active in this so-called tetrad model are considered to have affinity for the cannabinoid receptors.
(§4) The tetrad model is described, for example, in the publication of A. C. Howlett et al, International Union of Pharmacology XXVII. Classification of Cannabinoid Receptors, Pharmacol Rev 54, 161-202, 2002 and David R. Compton et al., “In-vivo Characterization of a Specific Cannabinoid Receptor Antagonist (SR141716A):Inhibition of Tetrahydrocannbinol-induced Responses and Apparent Agonist Activity”, J. Pharmacol. Exp. Ther. 277, 2, 586-594, 1996. The corresponding parts of the description are hereby incorporated by reference.
(§5) Male NMRI mice with a weight of 20-30 g (Harlan, Barcelona, Spain) are used in all of the following experiments.
(§6) Before testing in the behavioral procedures given below, mice are acclimatized to the experimental setting. Pre-Treatment control values are determined for analgesia hot plate latency (in seconds), rectal temperature, sedation and catalepsy.
In order to determine the antagonistic activity the identical procedure is used as for the determination of the agonistic effects, but with the difference that the substance to be evaluated for its antagonistic activity is injected 5 minutes before the intravenous injection of 1.25 mg/kg Win-55,212 a known cannabinoid-receptor agonist.
(§7) The hot plate analgesia is determined according to the method described in Woolfe D. et al. “The evaluation of analgesic action of pethidine hydrochloride (Demerol)”, J. Pharmacol. Exp. Ther. 80, 300-307, 1944. The respective description is hereby incorporated by reference and forms part of the present disclosure.
(§8) The mice are placed on a hot plate (Harvard Analgesimeter) at 55±0.5° C. until they show a painful sensation by licking their paws or jumping and the time for these sensations to occur is recorded. This reading is considered the basal value (B). The maximum time limit the mice are allowed to remain on the hot plate in absence of any painful response is 40 seconds in order to prevent skin damage. This period is called the cut-off time (PC).
(§9) Fifteen minutes after the administration of the substance to be tested, the mice are again placed on the hot plate and the afore described procedure is repeated. This period is called the post-treatment reading (PT).
(§10) The degree of analgesia is calculated from the formula:
(§11) % MPE of Analgesia=(PT−B)/(PC−B)×100
(§12) Sedation and ataxia is determined according to the method described in Desmet L. K. C. et al. “Anticonvulsive properties of Cinarizine and Flunarizine in Rats and Mice”, Arzneim.-Forsch. (Frug Res) 25, 9, 1975. The respective description is hereby incorporated by reference and forms part of the present disclosure.
(§13) The chosen scoring system is
(§14) 0: no ataxia; 1: doubtful; 2: obvious calmness and quiet; 3 pronounced ataxia; prior to as well as after treatment.
(§15) The percentage of sedation is determined according to the formula:
(§16) % of sedation=arithmetic mean/3×100
(§17) Hypothermia is determined according to the method described in David R. Compton et al. “In-vivo Characterization of a Specific Cannabinoid Receptor Antagonist (SR141716A) Inhibition of Tetrahydrocannbinol-induced Responses and Apparent Agonist Activity”, J. Pharmacol Exp Ther. 277, 2, 586-594, 1996. The respective description is hereby incorporated by reference and forms part of the present disclosure. […]

[3] = biological target: T2, transfected human CB1 receptor (Homo sapiens, UniProt P21554); assay: In-vitro affinity to CB1 receptor, radioligand [3H]-CP55940; format: binding
T2 construct: purchased Receptor Biology, Inc
Protocol: as §1, §2

[4] = In-vivo antidepressant activity, water despair test
Protocol: The in-vivo testing for antidepressant activity of the inventive pyrazoline compounds in the water despair test is carried out as described in the publication of E. T. Tzavara et al., “The CB1 receptor antagonist SR141716A selectively increases monoaminergic neurotransmission in the medial prefrontal cortex: implications for therapeutic actons”; Br. J. Pharmacol. 2003, 138(4):544:53. The respective part of the description is hereby incorporated by reference and forms part of the present disclosure.
The in-vivo testing for antidepressant activity of the inventive pyrazoline compounds in the water despair test was carried out as described above.

male NMRI mice [5] = assay: Mouse tetrad model, agonistic effect; format: in vivo; set-up: key to Agonistic effect D: Sedation: % of sedation = mean score (0–3 scale) / 3 × 100; Agonistic effect A: Hot-Plate test / Agonistic effect B: Hypothermia / Agonistic effect C: Catalepsy: unit not given here; conditions: 5 mg/kg i.v.
Excerpt: as §3, §4, §5, §6
In order to determine the agonistic activity of the substance to be tested, the mice are injected intravenously with the substance to be tested or the vehicle alone. 15 minutes after injection, latency in hot plate analgesia is measured. Rectal temperature, sedation and catalepsy are measured 20 minutes after injection.
as §7, §8, §9, §10, §11, §12, §13, §14, §15, §16, §17

[6] = read-out: CB1-Receptor Radioligand: [3H]-SR141716A % Inhibition 10^-7 M

CB1-Receptor, sequence (P21554 whole entry): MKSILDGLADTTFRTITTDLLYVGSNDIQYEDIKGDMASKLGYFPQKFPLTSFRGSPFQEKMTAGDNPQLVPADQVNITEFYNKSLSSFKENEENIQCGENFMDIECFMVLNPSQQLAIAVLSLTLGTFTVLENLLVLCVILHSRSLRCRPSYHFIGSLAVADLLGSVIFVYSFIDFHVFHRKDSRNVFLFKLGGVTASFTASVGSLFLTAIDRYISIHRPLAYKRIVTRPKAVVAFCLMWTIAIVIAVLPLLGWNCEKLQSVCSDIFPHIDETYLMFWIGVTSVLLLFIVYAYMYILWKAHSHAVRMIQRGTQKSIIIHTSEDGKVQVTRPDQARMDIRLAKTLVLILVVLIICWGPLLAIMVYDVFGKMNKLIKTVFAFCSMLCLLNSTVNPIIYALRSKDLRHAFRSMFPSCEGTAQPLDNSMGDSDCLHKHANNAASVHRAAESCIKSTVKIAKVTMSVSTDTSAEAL
T1 sequence (P34972 whole entry): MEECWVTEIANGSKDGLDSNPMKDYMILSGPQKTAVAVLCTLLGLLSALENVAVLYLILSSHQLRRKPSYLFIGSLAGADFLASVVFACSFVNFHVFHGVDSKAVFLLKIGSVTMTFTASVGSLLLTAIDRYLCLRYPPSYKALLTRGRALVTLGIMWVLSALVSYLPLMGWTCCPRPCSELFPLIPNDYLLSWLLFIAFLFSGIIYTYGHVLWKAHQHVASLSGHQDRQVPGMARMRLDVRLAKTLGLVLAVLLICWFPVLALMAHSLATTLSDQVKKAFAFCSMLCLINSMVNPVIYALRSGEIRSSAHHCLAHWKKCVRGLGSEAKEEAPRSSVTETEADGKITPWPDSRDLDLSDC
T2 sequence (P21554 whole entry): as the sequence (P21554 whole entry) above

SMILES: O=C(NN1CCCCC1)C1=NN(c2ccc(Cl)cc2Cl)C(c2ccc(Cl)cc2)C1.O=[N+]([O-])O (stereo not drawn)
CB1-Receptor Radioligand: [3H]-SR141716A % Inhibition 10^-7 M (CB1-Receptor; 10^-7 M, [3H]-SR141716A): 83.6%

SMILES: O=C(NN1CCCCC1)C1=NC(c2ccc(Cl)cc2Cl)[C@@H](c2ccc(Cl)cc2)C1 (stereo partly drawn)
inhibition at 0.1 µM (CB1-Receptor; 10^-7 M, [3H]-SR141716A, read-out: CB1-Receptor Radioligand: [3H]-SR141716A % Inhibition 10^-7 M): 82.7%

SMILES: O=C(NN1CCCCC1)C1=NN(c2ccc(Cl)cc2Cl)C(c2ccc(Cl)cc2)C1 (stereo not drawn) [Example 1, N-piperidinyl-5-(4-chlorophenyl)-1-(2,4-dichlorophenyl)-4,5-dihydro-1H-pyrazole-3-carboxamide]
body weight (rats; 10 mg/kg daily intraperitoneally over 14 days (FIG. 1)): lowered
food intake (rats; 10 mg/kg daily intraperitoneally over 14 days (FIG. 2)): reduction
body weight effect after the treatment is ended (rats; after end of 14 days of 10 mg/kg daily i.p. (FIG. 1)): also observed after the treatment is ended
Ki [1]: > 1000 nM
Antagonistic Effect A: Hot-Plate test (male NMRI mice [2]): 74
Antagonistic Effect B: Hypothermia (male NMRI mice [2]): 100
Antagonistic Effect C: Catalepsy (male NMRI mice [2]): 100
Antagonistic Effect D: Sedation (male NMRI mice [2]): 100
Ki [3]: < 25 nM
immobility time and struggling time [4]: positive effects
Agonistic effect A: Hot-Plate test (male NMRI mice [5]): 0
Agonistic effect B: Hypothermia (male NMRI mice [5]): 0
Agonistic effect C: Catalepsy (male NMRI mice [5]): 0
Agonistic effect D: Sedation (male NMRI mice [5]): 0

SMILES: O=C(NN1CCCCC1)C1=NN(c2ccc(Cl)cc2Cl)C(c2ccc(Cl)cc2)C1 (stereo not drawn) [drawing 82]
inhibition at 0.1 µM (CB1-Receptor; read-out: CB1-Receptor Radioligand: [3H]-SR141716A % Inhibition 10^-7 M, 10^-7 M, [3H]-SR141716A): 82.6%

melting point: 150 to 155 °C
SMILES: CN1CCN(NC(=O)C2=NN(c3ccc(Cl)cc3Cl)C(c3ccc(Cl)cc3)C2)CC1.Cl (stereo not drawn)

SMILES: O=C(NN1CCCCC1)C1=NN(c2ccc(Cl)cc2Cl)[C@@H](c2ccc(Cl)cc2)C1
inhibition at 0.1 µM (CB1-Receptor; [6]): 83.3%

melting point: 134 to 138 °C
SMILES: O=C(Nn1cnnc1)C1=NN(c2ccc(Cl)cc2Cl)C(c2ccc(Cl)cc2)C1 (stereo not drawn)

SMILES: O=C(NN1CCCCC1)C1=NN(c2ccc(Cl)cc2Cl)C(c2ccc(Cl)cc2)C1 (stereo not drawn) [drawing 84]
inhibition at 0.1 µM (CB1-Receptor; [6]): 99.7%

SMILES: O=C(C1=NN(c2ccc(Cl)cc2Cl)C(c2ccc(Cl)cc2)C1)N1CCCCC1 (stereo not drawn) [Example 5, [5-(4-Chloro-phenyl)-1-(2,4-dichloro-phenyl)-4,5-dihydro-1H-pyrazol-3-yl]-piperidin-1-yl-methanone]
Antagonistic Effect A: Hot-Plate test (male NMRI mice [2]): 50
Antagonistic Effect B: Hypothermia (male NMRI mice [2]): 40
Antagonistic Effect C: Catalepsy (male NMRI mice [2]): 20
Antagonistic Effect D: Sedation (male NMRI mice [2]): 20
melting point: 105 to 110 °C
Agonistic effect A: Hot-Plate test (male NMRI mice [5]): 0
Agonistic effect B: Hypothermia (male NMRI mice [5]): 50
Agonistic effect C: Catalepsy (male NMRI mice [5]): 0
Agonistic effect D: Sedation (male NMRI mice [5]): 0
